Results on 13 compounds are retold here after patent US12686687B2, “Compounds and uses thereof” (Foghorn Therapeutics Inc., priority 2019, dated 2026).

Assay [1] has as its target T1, Nanoluciferase-BRD9 fusion protein (3×FLAG-NLuc-BRD9) in SYO-1 cells (Homo sapiens, UniProt Q9H8M2).
T1 construct: expressed in transfected cells; host or cells: SYO-1
T1 sequence (Q9H8M2 1-597): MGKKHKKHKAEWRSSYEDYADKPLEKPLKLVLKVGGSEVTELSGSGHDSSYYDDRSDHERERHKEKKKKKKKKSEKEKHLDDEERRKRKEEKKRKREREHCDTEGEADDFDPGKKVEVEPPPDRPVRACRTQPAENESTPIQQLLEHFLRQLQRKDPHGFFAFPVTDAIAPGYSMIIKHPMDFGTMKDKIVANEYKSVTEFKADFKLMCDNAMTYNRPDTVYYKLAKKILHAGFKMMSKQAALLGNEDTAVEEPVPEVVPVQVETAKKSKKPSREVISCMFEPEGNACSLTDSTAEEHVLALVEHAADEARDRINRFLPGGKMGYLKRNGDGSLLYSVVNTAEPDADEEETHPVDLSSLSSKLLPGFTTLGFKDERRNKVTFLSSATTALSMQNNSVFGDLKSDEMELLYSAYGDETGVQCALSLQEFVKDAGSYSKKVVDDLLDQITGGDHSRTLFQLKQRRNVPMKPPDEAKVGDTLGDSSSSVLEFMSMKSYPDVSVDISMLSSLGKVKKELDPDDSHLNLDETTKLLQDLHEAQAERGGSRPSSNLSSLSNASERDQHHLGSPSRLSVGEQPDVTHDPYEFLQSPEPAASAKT
Put plainly: SYO1 BRD9 NanoLuc degradation assay. Format: cell-based. The settings on record: 6 hours treatment, 1 μM top dose; read-out: SYO1 BRD9-NanoLuc degradation IC50. Put shortly: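 Stable SYO-1 line expressing 3×FLAG-NLuc-BRD9 was seeded at 8000 cells/well, then treated next day for 6 h with 10-point 3-fold dilutions (top 1 μM final). Nano-Glo luminescence was read. % inhibition was normalised to DMSO (high control) and 1 μM reference BRD9 degrader (low control).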

The target of assay [2] is T2, BRD9 bromodomain (Flag-BRD9 P133-K239; Swiss Prot Q9H8M2) (Homo sapiens, UniProt Q9H8M2).
T2 construct: His-Flag-BRD9 (P133-K239); Swiss Prot Q9H8M2; His6 with TEV site (mgsshhhhhhenlyfq/) (N, cleaved yes); made in house
T2 sequence (Q9H8M2 133-239): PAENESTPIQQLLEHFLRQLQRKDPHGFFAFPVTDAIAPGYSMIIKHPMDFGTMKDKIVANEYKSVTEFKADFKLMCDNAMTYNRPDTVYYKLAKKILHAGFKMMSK
Put plainly: BRD9 bromodomain TR-FRET competition binding assay. The settings on record: 3 nM Flag-BRD9, 3.75 nM biotinylated ligand, 90 minutes at room temperature. As to the method:
Cleaved His tag was removed by purification. […] DMSO or 3-fold serially diluted compounds were then added to the Proxiplate followed by addition of Flag-BRD9. After a 10-minute incubation at room temperature, Eu-W1024 anti-FLAG (PerkinElmer, AD0273) was added.
In general terms: TR-FRET usually uses a lanthanide donor and a delayed reading to cut background.

Molecules are shown by their SMILES. pIC50: −log10 of the molar value. Where only a bound is given, the exact number is not on record here.

The pIC50 is −log10 of the IC50, conventionally taken in molar units. In the case of `COc1cc(-c2cn(C)c(=O)c3cc(C(=N)NC4CCS(=O)(=O)CC4)sc23)ccc1OCC(=O)NCCCCCCCCNc1cccc2c1CN(C1CCC(=O)NC1=O)C2=O` (centres unmarked) [Compound D2, 2-(4-[2-[N-(1,1-dioxo-A6-thian-4-yl)carbamimidoyl]-5-methyl-4-oxo-4H,5H-thieno[3,2-c]pyridin-7-yl]-2-methoxyphenoxy)-N-(8-[[2-(2,6-dioxopiperidin-3-yl)-1-oxo-2,3-dihydro-1H-isoindol-4-yl]amino]octyl)acetamide], in assay [1], the DC50 is above 10 nM. For the same compound, the pIC50 in assay [2] is above 8.00.

`Cn1cc(-c2ccc(OCC(=O)NCCCCCCCCNc3cccc4c3C(=O)N(C3CCC(=O)NC3=O)C4=O)c(C(F)(F)F)c2)c2sc(C(=N)NC3CCS(=O)(=O)CC3)cc2c1=O` (centres unmarked) [Compound D3, 2-(4-[2-[N-(1,1-dioxo-1λ6-thian-4-yl)carbamimidoyl]-5-methyl-4-oxo-4H,5H-thieno[3,2-c]pyridin-7-yl]-2-(trifluoromethyl)phenoxy)-N-(8-[[2-(2,6-dioxopiperidin-3-yl)-1,3-dioxo-2,3-dihydro-1H-isoindol-4-yl]amino]octyl)acetamide]: the DC50 in assay [1] is below 10 nM. This compound had a pIC50 in assay [2] below 8.00.

On to `COc1cc(-c2cn(C)c(=O)c3cc(NC(=O)C4CCN(C(=O)CCOCCOCCNc5cccc6c5C(=O)N(C5CCC(=O)NC5=O)C6=O)CC4)sc23)cc(OC)c1CN(C)C` (centres unmarked) [Compound D4, N-(7-[4-[(dimethylamino)methyl]-3,5-dimethoxyphenyl]-5-methyl-4-oxothieno[3,2-c]pyridin-2-yl)-1-[3-[2-(2-[[2-(2,6-dioxopiperidin-3-yl)-1,3-dioxoisoindol-4-yl]amino]ethoxy)ethoxy]propanoyl]piperidine-4-carboxamide], for which, in assay [1], the DC50 was above 10 nM. Also, the pIC50 in assay [2] was below 8.00.

On to `COc1cc(-c2cn(C)c(=O)c3cc(NC(=O)C4CCCN(C(=O)CCOCCOCCNc5cccc6c5C(=O)N(C5CCC(=O)NC5=O)C6=O)C4)sc23)cc(OC)c1CN(C)C` (centres unmarked) [Compound D5, N-(7-[4-[(dimethylamino)methyl]-3,5-dimethoxyphenyl]-5-methyl-4-oxothieno[3,2-c]pyridin-2-yl)-1-[3-[2-(2-[[2-(2,6-dioxopiperidin-3-yl)-1,3-dioxoisoindol-4-yl]amino]ethoxy)ethoxy]propanoyl]piperidine-3-carboxamide], for which the DC50 in assay [1] is above 1000 nM. Moreover, the pIC50 in assay [2] was below 7.00.

As for `COc1cc(-c2cn(C)c(=O)c3cc(NC(=O)C4CCN(CCCCCOc5cccc6c5C(=O)N(C5CCC(=O)NC5=O)C6=O)CC4)sc23)cc(OC)c1CN(C)C` (centres unmarked) [Compound D6, N-(7-[4-[(dimethylamino)methyl]-3,5-dimethoxyphenyl]-5-methyl-4-oxothieno[3,2-c]pyridin-2-yl)-1-(5-[[2-(2,6-dioxopiperidin-3-yl)-1,3-dioxoisoindol-4-yl]oxy]pentyl)piperidine-4-carboxamide], the DC50 in assay [1] is above 1000 nM. The pIC50 in assay [2] was above 8.00.

As to `COc1cc(-c2cn(C)c(=O)c3cc(NC(=O)[C@@H]4CCCN(C(=O)CCCCOc5cccc6c5C(=O)N(C5CCC(=O)NC5=O)C6=O)C4)sc23)cc(OC)c1CN(C)C` (stereo partly drawn) [Compound D7, (3R)—N-(7-[4-[(dimethylamino)methyl]-3,5-dimethoxyphenyl]-5-methyl-4-oxothieno[3,2-c]pyridin-2-yl)-1-(5-[[2-(2,6-dioxopiperidin-3-yl)-1,3-dioxoisoindol-4-yl]oxy]pentanoyl)piperidine-3-carboxamide], in assay [1], the DC50 was above 100 nM. This compound also had a pIC50 in assay [2] below 7.00.

On to `COc1cc(-c2cn(C)c(=O)c3cc(NC(=O)[C@H]4CCCN(C(=O)CCCCOc5cccc6c5C(=O)N(C5CCC(=O)NC5=O)C6=O)C4)sc23)cc(OC)c1CN(C)C` (stereo partly drawn) [Compound D8, (3S)—N-(7-[4-[(dimethylamino)methyl]-3,5-dimethoxyphenyl]-5-methyl-4-oxothieno[3,2-c]pyridin-2-yl)-1-(5-[[2-(2,6-dioxopiperidin-3-yl)-1,3-dioxoisoindol-4-yl]oxy]pentanoyl)piperidine-3-carboxamide], for which the DC50 in assay [1] is above 100 nM. In addition, the pIC50 in assay [2] is below 7.00.

As to `COc1cc(-c2cn(C)c(=O)c3cc(NC(=O)C4CCCN(CCCCCOc5cccc6c5C(=O)N(C5CCC(=O)NC5=O)C6=O)C4)sc23)cc(OC)c1CN(C)C` (centres unmarked) [Compound D9, N-(7-[4-[(dimethylamino)methyl]-3,5-dimethoxyphenyl]-5-methyl-4-oxothieno[3,2-c]pyridin-2-yl)-1-(5-[[2-(2,6-dioxopiperidin-3-yl)-1,3-dioxoisoindol-4-yl]oxy]pentyl)piperidine-3-carboxamide], the DC50 in assay [1] was above 1000 nM. The compound further showed a pIC50 in assay [2] below 8.00.

Consider `COc1cc(-c2cn(C)c(=O)c3cc(C(=O)NC4CCN(C(=O)CCCCOc5cccc6c5C(=O)N(C5CCC(=O)NC5=O)C6=O)CC4)sc23)cc(OC)c1CN(C)C` (centres unmarked) [Compound D10, 7-(4-((dimethylamino)methyl)-3,5-dimethoxyphenyl)-N-(1-(5-((2-(2,6-dioxopiperidin-3-yl)-1,3-dioxoisoindolin-4-yl)oxy)pentanoyl)piperidin-4-yl)-5-methyl-4-oxo-4,5-dihydrothieno[3,2-c]pyridine-2-carboxamide], for which the DC50 in assay [1] was below 10 nM. In assay [2], this compound showed a pIC50 above 8.00.

Turning to `COc1cc(-c2cn(C)c(=O)c3cc(C(=O)NC4CCN(CCCCCOc5cccc6c5C(=O)N(C5CCC(=O)NC5=O)C6=O)CC4)sc23)cc(OC)c1CN(C)C` (centres unmarked) [Compound D11, 7-(4-((dimethylamino)methyl)-3,5-dimethoxyphenyl)-N-(1-(5-((2-(2,6-dioxopiperidin-3-yl)-1,3-dioxoisoindolin-4-yl)oxy)pentyl)piperidin-4-yl)-5-methyl-4-oxo-4,5-dihydrothieno[3,2-c]pyridine-2-carboxamide], in assay [1], the DC50 was above 1000 nM. This compound also had a pIC50 in assay [2] above 8.00.

For the compound `COc1cc(-c2cn(C)c(=O)c3cc(NC(=O)C4CCN(C(=O)CCCCOc5cccc6c5C(=O)N(C5CCC(=O)NC5=O)C6=O)CC4)sc23)cc(OC)c1CN(C)C` (centres unmarked) [Compound D12, N-(7-[4-[(dimethylamino)methyl]-3,5-dimethoxyphenyl]-5-methyl-4-oxothieno[3,2-c]pyridin-2-yl)-1-(5-[[2-(2,6-dioxopiperidin-3-yl)-1,3-dioxoisoindol-4-yl]oxy]pentanoyl)piperidine-4 carboxamide], the DC50 in assay [1] is below 10 nM. The pIC50 in assay [2] is above 8.00.

Turning to `COc1cc(-c2cn(C)c(=O)c3cc(C(=O)NC4CCN(CCCCCOc5cccc6c5C(=O)N(C5CCC(=O)NC5=O)C6=O)CC4(F)F)sc23)cc(OC)c1CN(C)C` (centres unmarked) [Compound D13, 7-[4-[(dimethylamino)methyl]-3,5-dimethoxyphenyl]-N-[1-(5-[[2-(2,6-dioxopiperidin-3-yl)-1,3-dioxoisoindol-4-yl]oxy]pentyl)-3,3-difluoropiperidin-4-yl]-5-methyl-4-oxothieno[3,2-c]pyridine-2-carboxamide], in assay [1], the DC50 is below 10 nM. This compound also showed a pIC50 in assay [2] above 8.00.

Regarding `COc1cc(-c2cn(C)c(=O)c3cc(C(=O)NC4CCN(C)CC4)sc23)cc(OC)c1CN(C)CC(=O)NCCOCCOc1cccc2c1C(=O)N(C1CCC(=O)NC1=O)C2=O` (centres unmarked) [Compound D14, 7-(4-[[([[2-(2-[[2-(2,6-dioxopiperidin-3-yl)-1,3-dioxoisoindol-4 yl]oxy]ethoxy)ethyl]carbamoyl]methyl)(methyl)amino]methyl]-3,5-dimethoxyphenyl)-5-methyl-N-(1-methylpiperidin-4-yl)-4-oxothieno[3,2-c]pyridine-2-carboxamide], the DC50 in assay [1] was above 100 nM. The pIC50 in assay [2] was below 8.00.
